# In patent publication US8039585B2, “Therapeutic administration of the scrambled anti-angiogenic peptide C16Y” (The United States of America as represented by the …, priority 2004, dated 2011):
# Like-named read-outs stand apart in the source and are kept apart here.
# Tests used:
# MDA-MB 231 cells = experiment: Tumor cell proliferation assay (Cell Titer 96 Aqueous); type: cell-based; conditions: 100 μg/ml, 2-72 hours
# Description: A proliferation assay was performed to determine whether the tumor inhibition discussed in Example 6 was the result of angiogenesis inhibition or some effect on cell proliferation. Proliferation of MDA-MB 231 cells was quantified using a Cell Titer 96 Aqueous Cell Proliferation assay kit (Promega, Madison, Wis.). Cells were plated on four 96-well dishes at 5×10^3 cells/well and cultured in AIM-V serum-free medium (Life Technologies, Inc., Gaithersburg, Md.). After 1 hour, peptides C16 and C16Y were added at a final concentration of 100 μg/ml. A separate dish was used to quantitate proliferation at 2, 24, 48, and 72 hours by reading absorbance at 490 nm on an Emax plate reader. Each experiment was repeated in triplicate two times.
# [1] = tested on: MDA-MB 231 breast tumor cells; type: in vivo, chick; conditions: for Average tumor weight: 7 day incubation
# Description: FIG. 6: Inhibition of CAM tumor growth by C16Y. MDA-MB 231 breast tumor cells were mixed with C16 or C16Y peptides (at either 50 or 100 μg/ml), then mixed with 1:1 with neutralized collagen I solution. The collagen I gel was overlayed with the CAM of a 7-day-old embryo for 7 days, after which the membrane was fixed and tumor cells were removed and weighed. In the absence of either peptide, average tumor weight was 5.40±0.59 mg. […] C16Y peptide inhibited tumor growth by approximately 40% at both concentrations tested. Bars represent ±SD.
# The effect of C16Y on tumor growth in vivo was analyzed using the CAM assay (Gho 2001). MDA-MB 231 breast tumor cells (a gift of Dan Welch, Pennsylvania State University, University Park, Pa.) (1×10^6 cells/0.1 ml) in RPMI 1640 were mixed with 0, 50, or 100 μg/ml of C16 or C16Y, and then mixed 1:1 with a neutralized collagen I solution (4.6 mg/ml collagen type 1). This collagen I gel was overlayed with the CAM of a 7-day-old embryo. After a 7 day incubation, the membrane was fixed and tumor cells were removed and weighed. This experiment was repeated twice, with each data point tested in at least six replicates.
# [2] = tested on: MDA-MB 231 breast cancer cells; experiment: Primary tumor growth in nude mice (s.c. MDA-MB 231); type: in vivo; conditions: 1 mg/day i.p.
# Description: FIG. 7: Inhibition of primary tumor growth by C16Y. MDA-MB 231 cancer cells were injected subcutaneously (s.c.) into nude mice and the tumors were allowed to grow until they reached 200-300 mm^3. Mice were then treated daily for 7-10 days with C16 (1 mg/day) or C16Y peptides (0.2, 0.5, or 1 mg/day) by intraperitoneal (i.p.) injection. Control mice were injected with water only. Tumor size was measured at 0, 3, 6, and 9 days after peptide injections began. A. Mice were treated with 1 mg/day of either C16 or C16Y peptide for 10 days. […] B. Mice were treated with C16Y peptide at varying concentrations for 7 days. C16Y decreased tumor size at all concentrations tested during the 7 days it was administered. Tumor growth resumed when administration of the C16Y peptide was halted, with tumor size increasing more rapidly in mice treated with lower dosages of C16Y. Bars represent ±SD.
# MDA-MB 231 breast cancer cells (5×10^5 cells) mixed with Matrigel (1:4) were injected subcutaneously (s.c.) into nude mice. […] Tumor growth was monitored with a caliper, with measurements being taken on days 0, 3, 6, and 9 after the first peptide injection. Tumor volume was determined using the formula width^2×length×0.52. […] Vessel number was determined by staining sections with a CD-31 antibody (Nomizu 2001) and counting 6 fields per section per mouse (n=2 section/mouse; total 3 mice).
# [3] = tested on: C16-induced angiogenesis in the chick CAM; experiment: CAM assay, C16-induced angiogenesis; type: in vivo; conditions: peptide alone (C16: 0.5 μg)
# Description: FIG. 4: Inhibition of C16-induced angiogenesis by C16Y. 0.5 μg of angiogenic stimulator (C16 peptide) and varying concentrations of either C16S or C16Y peptides were applied to 10-day-old embryonated eggs in 5 μl of water. After 3 days, microphotographs were taken of the eggs to determine angiogenesis levels. Negative control eggs were treated with water only (panel a), while positive control eggs were treated with bFGF only (not shown). As expected, C16 peptide administered alone stimulated angiogenesis (panel d). […] When the amount of inhibitor peptide was lowered to 0.05 μg, C16Y peptide continued to inhibit angiogenesis (panel f), while C16S peptide had no effect (panel c).
# The CAM assay was performed using 10-day-old embryonated eggs (CBT, Charlestown, Md.) as described previously (Gho 1999). On embryonal day 3, approximately 4 ml of ovalbumin was removed from each egg. After opening windows on embryonal day 10, the angiogenic stimulus (C16) and test competitor peptides in 5 μl of distilled water were applied to the CAM after drying on 13-mm diameter quartered plastic coverslips (Thermanox; Nalge, NUNC International, Naperville, Ill.). Three days later, the eggs were scored for a positive response and photographed. The positive control was bFGF, and the negative control was the vehicle water. Experiments were repeated twice using a minimum of 11 eggs for each data point.
# HUVECs = experiment: Endothelial cell tube-forming assay on Matrigel; type: cell-based, human; parameters: key to Disruption of tube formation / Activity (tube formation, truncated C16Y peptides): +: tubes slightly affected; ++: tubes moderately affected; +++: tubes disrupted; ++++: tubes completely disrupted; −: tubes resemble control; conditions: for Disruption of tube formation: 16 hours
# Description: FIG. 3: Disruption of endothelial cell tube formation by C16Y peptide. 48-well plates were coated with 200 μl of Matrigel per well. Each well was treated with RPMI containing 24,000 human umbilical vein endothelial cells (HUVECS) and 100 mg/L endothelial cell growth factor in the presence of 10-75 μg/ml of C16 or scrambled C16 peptide for 16 hours. Control wells contained medium only. Cells were fixed and stained, and tube formation was scored by a blinded observer.
# Tube-forming assays were performed as described previously (Ponce 2001). 48-well plates were coated with 200 μl/well of Matrigel (Gho 2001; Kubota 1988), a basement membrane matrix. HUVECs (24,000 cells/well) were plated in RPMI 1640 containing 10% bovine calf serum, defined and supplemented (HyClone Laboratories, Inc., Logan, Utah), along with 100 mg/liter of endothelial cell growth factor (Collaborative Biomedical). C16 or scrambled C16 peptides were added at concentrations ranging from 10-75 μg/ml. Control wells contained medium only. After 16 hours, cells were fixed and stained with Diff-Quick fixative (methanol) and solution II (6.25% (w/v) each of azure A and methylene blue) (Dade A G, Dudingen, Switzerland), and tube formation was scored by a blinded observer. Each peptide was tested at least in triplicate, and the assays were repeated a minimum of three times.
# Tube formation assays were repeated using truncated versions of the C16Y peptide to determine the minimal active sequence of the peptide. The carboxyl end of C16Y was not necessary for activity, whereas the amino terminal aspartic acid was required. The minimal active sequence for the C16Y peptide is shown in SEQ ID NO: 2. Each of the peptides containing at least this 8 amino acid sequence (SEQ ID NOs: 1-5) inhibited tube formation.
sequence,measurement,setting,value
"KAFDITYVRLKF [Peptide C16, angiogenic peptide from the γ1 chain of laminin-1]",Effect on MDA-MB 231 cell proliferation,MDA-MB 231 cells,Neither C16 nor C16Y altered MDA-MB 231 cell proliferation
same,Average tumor weight,[1]; 50 μg/ml peptide,5.45 ± 0.84 mg
same,Average tumor weight,[1]; 100 μg/ml peptide,5.85 ± 0.54 mg
same,Vessels observed in tumors,[1]; P≦0.027,9.6±0.23
same,Tumor size relative to original size,"[2]; 7 days, stated jointly with control mice",1.7-2.5 times their original size
same,Tumor growth,[2]; after 7 days,did not significantly affect tumor growth
same,Angiogenesis with peptide administered alone,[3],capable of inducing angiogenesis
same,Dose at which tube formation is disrupted (lowest active),HUVECs; 10-75 μg/ml tested,50 µg/mL
same,Disruption of tube formation,HUVECs; peptide concentration 10 μg/ml,−
same,Disruption of tube formation,HUVECs; peptide concentration 25 μg/ml,−
same,Disruption of tube formation,HUVECs; peptide concentration 50 μg/ml,+
same,Disruption of tube formation,HUVECs; peptide concentration 75 μg/ml,+++
